Measured values from US20250288587A1, “Methods of Treating Fibrosis” (Athira Pharma, Inc., priority 2022, published 2025).

Key:
CFA-stimulated rats [1] = test: CFA inflammatory pain model, cytokine expression in paw skin; type: in vivo; set-up: key to IFN-γ expression in paw skin, change compared to CFA alone / IL-4 expression in paw skin, change compared to CFA alone / TNF-α expression in paw skin, change compared to CFA alone: NS = no statistically significant change in expression compared to CFA alone; + = statistically significant change in expression compared to CFA alone, p < 0.05; settings: day 8
Experimental: (§1) Response to peripheral inflammatory stimulus can be modeled by administering complete Freund's adjuvant (CFA), a suspension of desiccated mycobacterium in paraffin oil and mannide monooleate, by subcutaneous injection into the rat's footpad. The introduction of CFA to peripheral tissues leads to a rapid, sustained, inflammatory reaction in the treated tissue within 24 hours. Subcutaneous administration of CFA in the plantar region of the paw induces inflammatory pain behaviors that persist for at least 8 days. CFA treatment also leads to the accumulation of inflammatory cytokines in paw tissue at the site of injury, which, if unresolved, can lead to formation of fibrotic tissue. The extent of inflammatory response to CFA can be assessed by quantification of inflammatory cytokines in paw skin lysate, and inflammatory pain behaviors by mechanical allodynia (von Frey test) and thermal hyperalgesia (Hargreaves test).
(§2) In another study, Compounds 1a, 5a, and 6a were similarly tested against CFA-induced inflammatory stimulation in the right hind foot for their ability to reduce pain behaviors. This study also included quantification of inflammatory cytokine expression in paw skin lysate. Inflammatory pain stimulation with CFA injection and assessment of mechanical and thermal pain behaviors were performed as described above, with the exception that only post-dose pain behavior testing is reported.
(§3) Intraplantar CFA injection occurred at day 0. Treatment with Compounds 1a, 5a, and 6a occurred at days −2, 1, 3, and 7. At day 8, the rats were terminated and cytokine levels were measured in paw skin and plasma. Tissue from paw bone, joint, and muscle were obtained for H&E staining and analysis. Cytokine levels in test compound-treated animals were compared to CFA-stimulated animals. Analytes included interleukin 4 (IL-4), tumor necrosis factor alpha (TNF-α) and interferon gamma (IFN-γ). Statistical analysis consisted of 1-way ANOVA followed by Dunnett's multiple comparisons post-test. Mechanical allodynia and thermal hyperalgesia were tested 1 hour post-dosing on days 1, 3, and 7. PWT refers to […] paw withdrawal threshold where a higher value corresponds to a higher pain threshold. PWL refers to […] paw withdrawal latency where a higher value corresponds to a higher pain threshold.

CFA-stimulated rats [2] = test: CFA inflammatory pain model, mechanical allodynia (von Frey test); type: in vivo; set-up: key to Mechanical Allodynia, change in sensitivity compared to CFA alone / Mechanical Allodynia, significant reduction in pain behavior vs CFA alone: NS = no statistically significant change in sensitivity compared to CFA alone; + = statistically significant change in sensitivity compared to CFA alone, p < 0.05; settings: for study days on which sensitivity to mechanical stimulation was reduced: PO, post-dose testing, any tested dose; for PWT (paw withdrawal threshold) vs CFA+vehicle: data not shown
Experimental: as §1
In one study, Compound 2a was tested for its ability to reduce inflammatory pain behaviors in the CFA inflammation model. On study day 0, […] of CFA was administered subcutaneously in the plantar of the right hind paw. Animals were treated daily with Compound 2a in solution via oral gavage (PO) at doses of 1, 0.1, and 0.025 mg/kg. Treatment began before CFA injection on study day −1 and continued through study day 8.
Mechanical allodynia was measured using the von Frey test. In this test, rats were placed on a wire mesh and a series of filaments designed to deliver probing force ranging from 4 to 26 grams were applied to the mid-plantar surface of the right hind paw. Animals indicated pain response by lifting the probed paw. The minimal force required to elicit the withdrawal response was recorded as the paw withdrawal threshold (PWT). Von Frey testing was performed 1 hour after Compound 2a dosing on study day 1, 3, and 7, and was also tested pre-dosing on day 7. Statistical analysis was performed using a 1-way ANOVA with Tukey post-test. A p-value below 0.05 was considered statistically significant. Control animals stimulated with CFA but treated with only vehicle had high sensitivity to mechanical stimulation compared to normal control animals.
as §2, §3

MRC-5 cells = test: TGFβ-stimulated αSMA expression in MRC-5 cells (HTRF); type: cell-based; set-up: key to Significant reduction in αSMA via HTRF compared to TGFβ alone: NS = no statistically significant change in aSMA expression; + = p < 0.05; ++ = p < 0.01; +++ = p < 0.005; ++++ = p < 0.001; settings: for αSMA expression: combined with 0.01 ng/ml HGF; for Significant reduction in αSMA via HTRF compared to TGFβ alone: TGFβ 1 ng/ml, HGF 0.01 ng/ml, 48 h
Experimental: In this study, pulmonary-derived immortalized fibroblasts, MRC-5 cells, were cultured as a model of the early transition to fibrosis, and αSMA expression was measured using an immunodetection system driven by homogenous time-resolved fluorescence (HTRF) technology. This detection system produces a fluorescent signal in the presence of αSMA in cell lysates. Cells were grown to confluence in 96-well culture plates in complete media, and then transitioned to serum-free media for 2 hours. Next TGFβ (final 1 ng/ml in serum-free media) was added to the cells to stimulate the fibrotic transition. After 2 hours, media containing either HGF or HGF combined with one of the compounds was added to the cells. After incubation for 48 hours, cells were lysed and processed for αSMA HTRF to detect the levels of αSMA expression and compared to TGFβ-stimulated cultures. Statistical analysis consisted of 1-way ANOVA with a Dunnett's multiple comparison's post-test.

`CCC(C)CN1CC2N(C(=O)c3ccc(C(F)(F)F)cc3)CCC(=O)N2[C@@H](C)C1=O` (stereo partly shown) [Compound 1a] was tested. Which “IFN-γ expression in paw skin, change compared to CFA alone” value (“IFN-γ expression in paw skin, change” below) (CFA-stimulated rats [1]; 8 mg/kg PO) did it give?
Its value is “+ (+ = statistically significant change in expression compared to CFA alone, p < 0.05)”.

And the “IL-4 expression in paw skin, change compared to CFA alone” value (“IL-4 expression in paw skin, change” for short) (CFA-stimulated rats [1]; 8 mg/kg PO)?
The value was “+ (+ = statistically significant change in expression compared to CFA alone, p < 0.05)”.

And the “TNF-α expression in paw skin, change compared to CFA alone” value (“TNF-α expression in paw skin, change” for short) (CFA-stimulated rats [1]; 8 mg/kg PO)?
Its value is “+ (+ = statistically significant change in expression compared to CFA alone, p < 0.05)”.

And the “IFN-γ expression in paw skin, change” value (CFA-stimulated rats [1]; 16 mg/kg PO)?
Its value is “NS”.

And the “IL-4 expression in paw skin, change” value (CFA-stimulated rats [1]; 16 mg/kg PO)?
The value was “+ (+ = statistically significant change in expression compared to CFA alone, p < 0.05)”.

What about the “TNF-α expression in paw skin, change” value (CFA-stimulated rats [1]; 16 mg/kg PO) of the same compound?
Its value is “+ (+ = statistically significant change in expression compared to CFA alone, p < 0.05)”.

What about the “Mechanical Allodynia, significant reduction in pain behavior vs CFA alone” value (CFA-stimulated rats [2]; 8 mg/kg PO, Day 1, 1 h post-dose) of the same compound?
Its value is “+ (+ = statistically significant change in sensitivity compared to CFA alone, p < 0.05)”.

And the “Mechanical Allodynia, significant reduction in pain behavior vs CFA alone” value (CFA-stimulated rats [2]; 8 mg/kg PO, Day 3, 1 h post-dose)?
The value was “+ (+ = statistically significant change in sensitivity compared to CFA alone, p < 0.05)”.

What about the “Mechanical Allodynia, significant reduction in pain behavior vs CFA alone” value (CFA-stimulated rats [2]; 8 mg/kg PO, Day 7, 1 h post-dose) of the same compound?
Its value is “NS”.

And the “Mechanical Allodynia, significant reduction in pain behavior vs CFA alone” value (CFA-stimulated rats [2]; 16 mg/kg PO, Day 1, 1 h post-dose)?
The value was “+ (+ = statistically significant change in sensitivity compared to CFA alone, p < 0.05)”.

What about the “Mechanical Allodynia, significant reduction in pain behavior vs CFA alone” value (CFA-stimulated rats [2]; 16 mg/kg PO, Day 3, 1 h post-dose) of the same compound?
Its value is “+ (+ = statistically significant change in sensitivity compared to CFA alone, p < 0.05)”.

And the “Mechanical Allodynia, significant reduction in pain behavior vs CFA alone” value (CFA-stimulated rats [2]; 16 mg/kg PO, Day 7, 1 h post-dose)?
The value was “+ (+ = statistically significant change in sensitivity compared to CFA alone, p < 0.05)”.

What about the “study days on which sensitivity to mechanical stimulation was reduced” value (CFA-stimulated rats [2]) of the same compound?
Its value is “study days 1, 3, and 7”.

And the “PWT (paw withdrawal threshold) vs CFA+vehicle” value (from here on “PWT … vs CFA+vehicle”) (CFA-stimulated rats [2]; day 1)?
The value was “statistically significant increase”.

And the “PWT … vs CFA+vehicle” value (CFA-stimulated rats [2]; day 3, 8 and 16 mg/kg)?
The value was “statistically significant increase”.

What about the “PWT … vs CFA+vehicle” value (CFA-stimulated rats [2]; day 7, 16 mg/kg) of the same compound?
Its value is “statistically significant increase”.

And the αSMA expression (MRC-5 cells; 1 uM)?
Its αSMA expression is “significantly reduced αSMA”.

And the “Significant reduction in αSMA via HTRF compared to TGFβ alone” value (“Significant reduction in αSMA via HTRF” for short) (MRC-5 cells; test compound 1 nM)?
Its value is “NS”.

And the “Significant reduction in αSMA via HTRF” value (MRC-5 cells; test compound 1 μM)?
Its value is “++++ (++++ = p < 0.001)”.

Which “IFN-γ expression in paw skin, change” value (CFA-stimulated rats [1]; 10 mg/kg PO) does the source give for `CCC(C)CN1CC2N(Cc3ccc(C(F)(F)F)cc3)CCC(=O)N2[C@@H](C)C1=O` (stereo partly shown) [Compound 5a] here?
Its value is “+ (+ = statistically significant change in expression compared to CFA alone, p < 0.05)”.

And the “IL-4 expression in paw skin, change” value (CFA-stimulated rats [1]; 10 mg/kg PO)?
Its value is “+ (+ = statistically significant change in expression compared to CFA alone, p < 0.05)”.

And the “TNF-α expression in paw skin, change” value (CFA-stimulated rats [1]; 10 mg/kg PO)?
Its value is “+ (+ = statistically significant change in expression compared to CFA alone, p < 0.05)”.

And the “IFN-γ expression in paw skin, change” value (CFA-stimulated rats [1]; 20 mg/kg PO)?
Its value is “+ (+ = statistically significant change in expression compared to CFA alone, p < 0.05)”.

What about the “IL-4 expression in paw skin, change” value (CFA-stimulated rats [1]; 20 mg/kg PO) of the same compound?
The value was “+ (+ = statistically significant change in expression compared to CFA alone, p < 0.05)”.

And the “TNF-α expression in paw skin, change” value (CFA-stimulated rats [1]; 20 mg/kg PO)?
The value was “+ (+ = statistically significant change in expression compared to CFA alone, p < 0.05)”.

And the “Mechanical Allodynia, significant reduction in pain behavior vs CFA alone” value (CFA-stimulated rats [2]; 10 mg/kg PO, Day 1, 1 h post-dose)?
The value was “+ (+ = statistically significant change in sensitivity compared to CFA alone, p < 0.05)”.

What about the “Mechanical Allodynia, significant reduction in pain behavior vs CFA alone” value (CFA-stimulated rats [2]; 10 mg/kg PO, Day 3, 1 h post-dose) of the same compound?
Its value is “NS”.

And the “Mechanical Allodynia, significant reduction in pain behavior vs CFA alone” value (CFA-stimulated rats [2]; 10 mg/kg PO, Day 7, 1 h post-dose)?
Its value is “NS”.

And the “Mechanical Allodynia, significant reduction in pain behavior vs CFA alone” value (CFA-stimulated rats [2]; 20 mg/kg PO, Day 1, 1 h post-dose)?
Its value is “+ (+ = statistically significant change in sensitivity compared to CFA alone, p < 0.05)”.

And the “Mechanical Allodynia, significant reduction in pain behavior vs CFA alone” value (CFA-stimulated rats [2]; 20 mg/kg PO, Day 3, 1 h post-dose)?
The value was “NS”.

What about the “Mechanical Allodynia, significant reduction in pain behavior vs CFA alone” value (CFA-stimulated rats [2]; 20 mg/kg PO, Day 7, 1 h post-dose) of the same compound?
Its value is “NS”.

And the “study days on which sensitivity to mechanical stimulation was reduced” value (CFA-stimulated rats [2])?
The value was “study day 1”.

What about the “PWT … vs CFA+vehicle” value (CFA-stimulated rats [2]; day 1) of the same compound?
Its value is “statistically significant increase”.

What about the αSMA expression (MRC-5 cells; 1 nM) of the same compound?
Its αSMA expression is “significantly reduced αSMA”.

And the αSMA expression (MRC-5 cells; 1 uM)?
The αSMA expression was “significantly reduced αSMA”.

And the “Significant reduction in αSMA via HTRF” value (MRC-5 cells; test compound 1 nM)?
The value was “+ (+ = p < 0.05)”.

And the “Significant reduction in αSMA via HTRF” value (MRC-5 cells; test compound 1 μM)?
Its value is “++++ (++++ = p < 0.001)”.
